Results as given in paper PMC7307930, “Stereoselective Activity of 1-Propargyl-4-styrylpiperidine-like Analogues That Can Discriminate between Monoamine Oxidase Isoforms A and B” (Journal of Medicinal Chemistry, 2020).
“Also recorded” adds a separate entry of the source.

Legend:
[1] = test system: Swiss mice; experiment: Tail suspension test; assay type: in vivo, mouse; conditions: ip 30 min before; 6, 67 at 3 and 10 mg/kg, 69 at 1, 3, 10, 30 mg/kg, imipramine 30 mg/kg
Experimental: The antidepressant-like activity was screened with the widely used tail suspension test. At 30 min before the behavioral assays, the mice were treated with 6, 67, and 69 at 3 mg/kg and 10 mg/kg ip, with 69 also at 1 mg/kg and 30 mg/kg ip, or were injected with 0.9% saline as control. Imipramine (30 mg/kg ip) was used as the reference drug.
(A) Effects of acute ip treatment with 6 (3, 10 mg/kg, n = 13, 9), 67 (3, 10 mg/kg, n = 6, 10), and 69 (1, 3, 10, 30 mg/kg, n = 8, 7, 8, 6) and imipramine (30 mg/kg, n = 8) in the tail suspension test. […] (B) Effects of acute ip treatment with 6 (3, 10 mg/kg, n = 8, 8), 67 (1, 3, 6 mg/kg; n = 5, 5, 5), and 69 (1, 3, 6 mg/kg, n = 10, 5, 5) on locomotor activity of the mice. […] (C) Effects of 10-day chronic ip treatment with 69 (0.3 mg/kg, daily; n = 10) in the tail suspension test. Data are mean values ± SEM of the immobility time, compared to control mice (n = 8): ∗∗, p < 0.01 (unpaired t-test). […]
quality control sample every seven test samples. The absolute matrix effect was checked by comparing the analyte responses in the standard solutions to the samples spiked in the tissue incubation medium from the control experiment without the analyte, and a deviation of less than ±20% was deemed acceptable.
4.2.10In vitro radioligand binding assay
Rats were humanely killed by decapitation and their brains were removed, washed and rapidly dissected on ice. Homogenisation was performed using a homogeniser (PRO Scientific Inc) at 30,000 rpm for 1 min. For 5-HT1A binding assays, the cortex tissues were homogenised in 30 volumes/weight ice-cold 50 mM Tris–HCl buffer (pH 7.4), and the homogenate was centrifuged at 40,000× g for 15 min at 0 °C to 4 °C. The resulting pellets were resuspended in 30 volumes/weight of the same buffer, and incubated at 37 °C for 20 min. The centrifugation step was repeated twice under the same conditions as described above, and the final pellets were resuspended in 30 volumes/weight 50 mM Tris–HCl buffer (pH 7.4), and stored at –80 […]
For the [3H]-8-OH-DPAT binding assay (the 5-HT1A receptor binding assay), the membranes were thawed and resuspended in 50 mM Tris–HCl (pH 7.4) with 1 mM MnCl2, to a final protein concentration of 0.5 mg/mL. The incubation was carried out at 25 °C for 1 h in a final volume of 1 mL membrane suspension in the presence of the sample assayed and with 0.2 nM [3H]-8-OH-DPAT (170.2 Ci/mmol). Serotonin was used as the positive control. Non-specific binding was determined in parallel incubations in the presence of serotonin (10 μM).
4.2.11 Tail suspension test
The tail suspension test was carried out according to the methodology proposed by Steru and co-workers.22 The mice were individually suspended by the tail from a metal hook (distance

[2] = Thermodynamic solubility in PBS; assay type: physicochemical; conditions: PBS (pH 7.4), 37 °C, 24 h, hydrochloride salts
[3] = test system: Swiss mice; experiment: Locomotor activity test; assay type: in vivo, mouse; conditions: acute 10 mg/kg ip
[4] = test system: SH-SY5Y cells; experiment: MTS cytotoxicity assay; conditions: 24 h, 5 μM and 10 μM
[5] = test system: Swiss mice; experiment: Elevated plus maze test; assay type: in vivo, mouse; conditions: for Open arm entries (%) / Time in centre (%) / Time in open arms (%) / Total arm entries: acute ip
[6] = molecular target: T1, 5-HT1A receptor (Rattus norvegicus, UniProt P19327); experiment: [3H]-8-OH-DPAT radioligand binding assay, rat cortex membranes; conditions: for Ki: [3H]-8-OH-DPAT binding, means ±SEM; for inhibition at 300 µM: read-out: Inhibition at 300 µM
T1 construct: from tissue; host or cells: rat (male Wistar) brain cortex membranes
T1 sequence (P19327 1-422): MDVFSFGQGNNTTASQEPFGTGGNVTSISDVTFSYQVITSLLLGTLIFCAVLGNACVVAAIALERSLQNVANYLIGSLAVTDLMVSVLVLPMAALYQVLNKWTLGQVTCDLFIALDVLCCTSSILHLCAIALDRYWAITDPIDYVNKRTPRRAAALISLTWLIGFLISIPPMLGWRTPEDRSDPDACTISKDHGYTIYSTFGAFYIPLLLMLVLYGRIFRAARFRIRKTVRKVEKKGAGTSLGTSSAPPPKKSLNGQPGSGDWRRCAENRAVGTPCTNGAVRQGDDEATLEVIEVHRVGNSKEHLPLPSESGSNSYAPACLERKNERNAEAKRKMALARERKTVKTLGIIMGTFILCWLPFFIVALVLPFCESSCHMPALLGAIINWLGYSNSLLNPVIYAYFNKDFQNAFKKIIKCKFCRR

[7] = Chemical stability and photoisomerization by proton NMR in D2O; assay type: physicochemical; conditions: hydrochloride salts, more than 1 year at room temperature protected from sunlight, 1H NMR in D2O
Experimental: Possible chemical instability and photoisomerization of E/Z isomers were also addressed as these are known liabilities of stilbene derivatives.[23] Proton NMRs of 69 (cis derivative), 84 (trans derivative), and 100 (ethyl analogue) in the form of hydrochloride salts were recorded in D2O (Figures S1–S3). […] The samples dissolved in the NMR tubes were then left on the benchtop exposed to natural daylight for 7 days, which could induce photoisomerization. […] Altogether, these studies imply reasonable stability of the compounds.
Figure S2. […] Compound 84 (trans isomer, […]
hydrochloride salt) was dissolved in D2O and the spectra were recorded at time 0 h, 1 h, 24 h and 7 days. Sample was exposed to day light in between the measurement, which could induce photoisomerization and potentially also chemical degradation.
The sample was previously stored at […]

[8] = molecular target: T2, hMAO-A (Homo sapiens, UniProt P21397); experiment: hMAO-A inhibition, HRP–Amplex Red coupled fluorimetric assay; assay type: biochemical; conditions: supplement csv; RA at 100 micromolar
T2 construct: purchased Sigma Aldrich; host or cells: baculovirus-infected insect cells (BTI-TN-5B1-4)
T2 sequence (P21397 1-527): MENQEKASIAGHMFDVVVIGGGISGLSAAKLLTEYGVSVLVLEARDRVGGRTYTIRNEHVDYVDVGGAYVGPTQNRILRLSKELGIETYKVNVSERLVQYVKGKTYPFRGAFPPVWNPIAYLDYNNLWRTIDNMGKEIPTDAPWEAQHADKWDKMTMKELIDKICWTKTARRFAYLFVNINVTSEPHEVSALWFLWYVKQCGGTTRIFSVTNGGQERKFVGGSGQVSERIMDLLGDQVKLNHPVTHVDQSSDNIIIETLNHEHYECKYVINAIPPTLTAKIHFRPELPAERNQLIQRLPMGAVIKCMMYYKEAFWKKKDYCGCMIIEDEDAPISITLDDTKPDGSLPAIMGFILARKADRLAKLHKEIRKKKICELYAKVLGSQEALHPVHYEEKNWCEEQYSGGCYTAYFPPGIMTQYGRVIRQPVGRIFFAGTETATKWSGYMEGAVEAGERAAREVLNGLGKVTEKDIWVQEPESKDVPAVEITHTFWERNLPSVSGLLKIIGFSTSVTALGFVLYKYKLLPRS

[9] = test system: Swiss mice; experiment: Haloperidol-induced catalepsy test; assay type: in vivo, mouse; conditions: 5 mg/kg, reference drug
[10] = test system: MAO-A/B; experiment: In vitro MAO inhibition in mouse brain homogenate, p-tyramine substrate; assay type: biochemical; conditions: substrate of MAO A/B, control mouse brain homogenates

Compound | immobility time, acute treatment [1] | thermodynamic solubility [2] | cytotoxic effects [4] | Open arm entries (%) ([5]; 3 mg/kg) | Time in centre (%) ([5]; 3 mg/kg) | Time in open arms (%) ([5]; 3 mg/kg) | Total arm entries ([5]; 3 mg/kg) | Ki [6] [µM] | inhibition at 300 µM [6] [%] | other results
C#CCN1CCC(/C=C\c2ccc(F)cc2)CC1 [Compound 6, (Z)-4-(4-Fluorostyryl)-1-(prop-2-yn-1-yl)piperidine] | significantly reduced | at least 17.6 g/250 mL | no significant cytotoxic effects | 10.8 ±2.6 | 43.5 ±2.8 | 9.1 ±1.9 | 22.0 ±1.5 | 2.4 ± 0.6 | 88 | spontaneous locomotor activity [3]: significantly decreased; increase in the proportion of open-arm entries ([5]; 10 mg/kg ip, vs 0.9% saline): 2.0 fold; Open arm entries (%) ([5]; 10 mg/kg): 27.5 ±3.2%; Time in open arms (%) ([5]; 10 mg/kg): 8.4 ±2.7%
C#CCN1CCC(/C=C\c2ccccc2)CC1 [Compound 67, (Z)-1-(Prop-2-yn-1-yl)-4-styrylpiperidine] | did not decrease the immobility time | ≥ 10.5 g/250 mL | no significant cytotoxic effects | 15.0 ±2.3 | 39.8 ±1.7 | 11.9 ±2.3 | 20.6 ±2.4 | 0.7 ± 0.1 | 96 | Open arm entries (%) ([5]; 6 mg/kg): 15.6 ±3.4%; Time in centre (%) ([5]; 6 mg/kg): 53.1 ±5.7%; Time in open arms (%) ([5]; 6 mg/kg): 5.4 ±1.0%; Total arm entries ([5]; 6 mg/kg): 15.4 ±0.8
C#CCN1CCC(/C=C/c2ccc(C(F)(F)F)cc2)CC1 [Compound 84, (E)-1-(Prop-2-yn-1-yl)-4-(4-(trifluoromethyl)styryl)piperidine] | – | – | no significant cytotoxic effects | – | – | – | – | – | 48 | chemical stability on storage [7]: only smaller amounts of impurities were detected; also recorded: partial degradation; IC50(MAO-A) class [8]: na (na-not_active(RA_at_100micromolar>50%))
CN1[C@@H]2C[C@@H](OC(=O)[C@H](CO)c3ccccc3)C[C@H]1[C@@H]1O[C@@H]12 [Scopolamine, reference compound] | – | – | – | – | – | – | – | – | – | latency time to descend from the bar [9]: significantly decreased the latency time
CN(C)CCCN1c2ccccc2CCc2ccccc21 [imipramine, reference compound] | significantly reduced | – | – | – | – | – | – | – | – | –
NCCc1ccc(O)cc1 [p-Tyramine, reference compound] | – | – | – | – | – | – | – | – | – | K0.5 [10]: 0.071 ± 0.032 mM
